The values below come from US12171755B2, “PAPD5 inhibitors and methods of use thereof” (Children's Medical Center Corporation, priority 2017, dated 2024).

This test concerns the target T1, PAPD5 (Homo sapiens, UniProt Q8NDF8).
T1 construct: made in house
Briefly: High-throughput luminescence (KinaseGlo) RNA polyadenylation assay, ATP utilization by recombinant PAPD5. In kind it is biochemical. The note with it: Table 4 (entries of Table 5), ratio of luminescence with inhibitor to DMSO; for Fold-change determined at compound concentration 33 μM: 33 μM compound; for Fold-change determined at compound concentration 100 μM: 100 μM compound, higher = higher inhibition. On the procedure: Optimal conditions for an in vitro RNA polyadenylation assay using recombinant PAPD5, ATP and an oligonucleotide substrate were identified. The HTS assay involved ATP utilization by PAPD5, which reads out as a decreased luminescence signal produced by luciferase (KinaseGlo, Promega, Madison, WI).
100 nl of compound dissolved in DMSO was transferred to each well of the assay plate via pin transfer. For negative control wells, DMSO alone was added. Plates were gently vortexed for 5 seconds, then incubated for 2 hours at room temperature.
After 2 hours, 5 ul of luciferase (Promega KinaseGlo, Madison, WI) was added using a MultiDrop Combi (Thermo Fisher Scientific, Waltham, MA). The mixture was gently vortexed for 5 seconds and incubated for 10 minutes at room temperature. Plates were spun for 1 minute prior to luminescence measurements. Luminescent measurements were quantitated using a PerkinElmer EnVision™ plate reader.
˜100,000 compounds from various libraries at the ICCB-Longwood were screened in this manner in duplicate.
The fold change was the ratio of luminescence from a sample with inhibitor compared to that with DMSO. Thus, a higher number indicates higher inhibition.
Background: Kinase-Glo measures the ATP left after a reaction by luminescence.

T1 sequence (Q8NDF8 68-698 isoform Q8NDF8-5): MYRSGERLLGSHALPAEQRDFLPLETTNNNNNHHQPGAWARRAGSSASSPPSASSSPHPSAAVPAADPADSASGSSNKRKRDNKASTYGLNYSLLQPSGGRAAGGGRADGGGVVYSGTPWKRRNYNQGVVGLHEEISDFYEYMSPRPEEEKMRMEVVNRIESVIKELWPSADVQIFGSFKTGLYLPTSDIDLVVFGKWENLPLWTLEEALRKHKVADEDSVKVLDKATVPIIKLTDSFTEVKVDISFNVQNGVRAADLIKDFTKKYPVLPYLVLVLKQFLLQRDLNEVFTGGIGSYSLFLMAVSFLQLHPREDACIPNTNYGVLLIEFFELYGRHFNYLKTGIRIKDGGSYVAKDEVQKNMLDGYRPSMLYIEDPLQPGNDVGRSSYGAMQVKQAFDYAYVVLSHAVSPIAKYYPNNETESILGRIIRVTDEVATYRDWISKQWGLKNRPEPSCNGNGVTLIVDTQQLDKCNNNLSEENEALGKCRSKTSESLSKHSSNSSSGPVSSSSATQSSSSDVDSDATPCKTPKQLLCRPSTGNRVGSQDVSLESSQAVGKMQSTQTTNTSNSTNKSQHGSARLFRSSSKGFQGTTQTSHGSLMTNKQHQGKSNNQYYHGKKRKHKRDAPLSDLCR

For `c1cc(OCCN2CCCCC2)cc(-c2n[nH]c3ccc(-c4ncn[nH]4)cc23)c1` [Entry 160, 3-[3-(2-piperidin-1-ylethoxy)phenyl]-5-(1H-1,2,4-triazol-5-yl)-1H-indazole], the “Fold-change determined at compound concentration 33 μM” value was determined as 1.075 and the “Fold-change determined at compound concentration 100 μM” value is recorded as 1.239.

As to `CCc1nc2[nH]c(-c3ccc(C)cc3)cc(=O)n2n1` [Entry 158, 2-ethyl-5-(4-methylphenyl)[1,2,4]triazolo[1,5-a]pyrimidin-7(4H)-one], the “Fold-change determined at compound concentration 33 μM” value is 1.13 and the “Fold-change determined at compound concentration 100 μM” value is listed as 1.364.

With `Cc1cc2oc(C(=O)Nc3nnc(C(C)C)s3)cc(=O)c2cc1C` [Entry 122, 6,7-dimethyl-4-oxo-N-(5-propan-2-yl-1,3,4-thiadiazol-2-yl)chromene-2-carboxamide], the “Fold-change determined at compound concentration 33 μM” value turned out to be 1.134 and the “Fold-change determined at compound concentration 100 μM” value amounted to 1.377.

With `Cc1nnc2ccc(-n3ncc4c3NC(=O)CC4c3ccc(O)cc3)nn12` (stereo not shown) [Entry 148, 4-(4-hydroxyphenyl)-1-(3-methyl[1,2,4]triazolo[4,3-b]pyridazin-6-yl)-1,4,5,7-tetrahydro-6H-pyrazolo[3,4-b]pyridin-6-one], the “Fold-change determined at compound concentration 33 μM” value came out at 1.05 and the “Fold-change determined at compound concentration 100 μM” value turned out to be 1.215.

In the case of `COc1ccc(Br)cc1[C@@H]1Nc2ccc(C(=O)O)cc2[C@@H]2C=CC[C@@H]21` [Entry 99, (3aS,4R,9bR)-4-(5-bromo-2-methoxyphenyl)-3a,4,5,9b-tetrahydro-3H-cyclopenta[c]quinoline-8-carboxylic acid], the “Fold-change determined at compound concentration 33 μM” value was 1.233 and the “Fold-change determined at compound concentration 100 μM” value is 1.91.

For `N#C/C(=C\c1ccc(-c2ccc(C(=O)O)cc2)o1)C(=O)Nc1ccccc1C(=O)O` [Entry 244, 2-[[(E)-3-[5-(4-carboxyphenyl)furan-2-yl]-2-cyanoprop-2-enoyl]amino]benzoic acid], the “Fold-change determined at compound concentration 33 μM” value is listed as 1.737 and the “Fold-change determined at compound concentration 100 μM” value stood at 2.572. Further, the “Fold-change determined at compound concentration 10 μM” value (10 μM compound) is 1.32.

Regarding `Cc1ccc(-c2onc3ccc(-c4cc(C(=O)O)c5ccccc5n4)cc23)cc1` [Entry 84, 2-[3-(4-methylphenyl)-2,1-benzoxazol-5-yl]quinoline-4-carboxylic acid], the “Fold-change determined at compound concentration 33 μM” value is 1.12 and the “Fold-change determined at compound concentration 100 μM” value came out at 1.568.

Turning to `Nc1nc(N2CCCC2)nc2ccccc12` [Entry 33, 2-(1-pyrrolidinyl)-4-quinazolinamine], the “Fold-change determined at compound concentration 33 μM” value is reported as 1.175 and the “Fold-change determined at compound concentration 100 μM” value is recorded as 1.505.

Regarding `Cn1c(=O)c2c(nc(Sc3nnc(NC(=O)c4ccccc4Br)s3)n2C)n(C)c1=O` [Entry 81], the “Fold-change determined at compound concentration 33 μM” value turned out to be 1.107 and the “Fold-change determined at compound concentration 100 μM” value worked out at 1.288.

For the compound `CCc1ccccc1NC(=O)Cc1c(C(=O)O)[nH]c2ccc(Cl)cc12` [Entry 110, 5-chloro-3-[2-(2-ethylanilino)-2-oxoethyl]-1H-indole-2-carboxylic acid], the “Fold-change determined at compound concentration 33 μM” value was found to be 1.126 and the “Fold-change determined at compound concentration 100 μM” value is reported as 1.298.

`O=C(O)c1ccc(Nc2c(-c3cc(Br)ccc3O)nc3cnccn23)cc1` [Entry 192, 4-{[2-(5-bromo-2-hydroxyphenyl)imidazo[1,2-a]pyrazin-3-yl]amino}benzoic acid]: the “Fold-change determined at compound concentration 33 μM” value is 1.106 and the “Fold-change determined at compound concentration 100 μM” value was 1.419.

For `O=C(NCc1ccccn1)C1CCCN(c2ncnc3c2oc2ccccc23)C1` (stereo not shown) [Entry 37, 1-([1]benzofuro[3,2-d]pyrimidin-4-yl)-N-(pyridin-2-ylmethyl)piperidine-3-carboxamide], the “Fold-change determined at compound concentration 33 μM” value came out at 1.077 and the “Fold-change determined at compound concentration 100 μM” value was 1.218.

In the case of `COc1ccc(NS(=O)(=O)c2cc3[nH]c(=O)c(=O)[nH]c3cc2C)cc1Cl` [Entry 135, N-(3-chloro-4-methoxyphenyl)-7-methyl-2,3-dioxo-1,4-dihydroquinoxaline-6-sulfonamide], the “Fold-change determined at compound concentration 33 μM” value was found to be 1.191 and the “Fold-change determined at compound concentration 100 μM” value turned out to be 1.347.

Consider `CCOC(=O)c1cccc(NS(=O)(=O)c2cc3[nH]c(=O)c(=O)[nH]c3cc2C)c1` [Entry 139, ethyl 3-[(7-methyl-2,3-dioxo-1,4-dihydroquinoxalin-6-yl)sulfonylamino]benzoate], for which the “Fold-change determined at compound concentration 33 μM” value is given as 1.272 and the “Fold-change determined at compound concentration 100 μM” value is listed as 1.549.

On to `Cc1ccc(-c2ccc3nnc(C)n3n2)cc1S(=O)(=O)N1CCCC1` [Entry 146, 3-methyl-6-(4-methyl-3-pyrrolidin-1-ylsulfonylphenyl)-[1,2,4]triazolo[4,3-b]pyridazine], for which the “Fold-change determined at compound concentration 33 μM” value was found to be 1.07 and the “Fold-change determined at compound concentration 100 μM” value was 1.217.

In the case of `CC(C)c1ccc(C2CC(=O)N3CN(C4CCCCC4)CSC3=C2C#N)cc1` (stereo not shown) [Entry 195, 3-cyclohexyl-6-oxo-8-(4-propan-2-ylphenyl)-2,4,7,8-tetrahydropyrido[2,1-b][1,3,5]thiadiazine-9-carbonitrile], the “Fold-change determined at compound concentration 33 μM” value worked out at 1.072 and the “Fold-change determined at compound concentration 100 μM” value amounted to 1.228.

With `CCCNC(=O)CSc1c2c(nc3ccc(Cl)cc13)CCCC2` [Entry 90, 2-[(7-chloro-1,2,3,4-tetrahydroacridin-9-yl)sulfanyl]-N-propylacetamide], the “Fold-change determined at compound concentration 33 μM” value was 1.105 and the “Fold-change determined at compound concentration 100 μM” value stood at 1.253.

For `Cc1ccc(NC(=O)c2ccc3c(O)c(S(=O)(=O)c4ccc(Cl)cc4)c(=O)[nH]c3c2)cc1` [Entry 95, 3-(4-chlorophenyl)sulfonyl-4-hydroxy-N-(4-methylphenyl)-2-oxo-1H-quinoline-7-carboxamide], the “Fold-change determined at compound concentration 33 μM” value is listed as 1.156 and the “Fold-change determined at compound concentration 100 μM” value was 1.228.

Take `Cc1cccc(C(=O)Nc2nc3nc(-c4ccccc4)cc(=O)n3[nH]2)c1` [Entry 151, 3-methyl-N-(7-oxo-5-phenyl-1H-[1,2,4]triazolo[1,5-a]pyrimidin-2-yl)benzamide]: the “Fold-change determined at compound concentration 33 μM” value is on record as 1.312 and the “Fold-change determined at compound concentration 100 μM” value turned out to be 1.799.

Consider `COc1ccc(NC(=O)c2ccc3c(SCC(=O)O)c4c(nc3c2)CCCC4)c(OC)c1` [Entry 88, [(6-{[(2,4-dimethoxyphenyl)amino]carbonyl}-1,2,3,4-tetrahydroacridin-9-yl)thio]acetic acid], for which the “Fold-change determined at compound concentration 33 μM” value stood at 1.082 and the “Fold-change determined at compound concentration 100 μM” value is recorded as 1.276.

Take `COc1ccc(NC(=O)c2ccc3c(SCC(=O)O)c4c(nc3c2)CCC4)c(OC)c1` [Entry 87, 2-[[6-[(2,4-dimethoxyphenyl)carbamoyl]-2,3-dihydro-1H-cyclopenta[b]quinolin-9-yl]sulfanyl]acetic acid]: the “Fold-change determined at compound concentration 33 μM” value came to 1.097 and the “Fold-change determined at compound concentration 100 μM” value was found to be 1.253.

`Cc1nc[nH]c1CN1CCc2c(c3ccccc3n2C)C1=O` [Entry 111, 5-methyl-2-((4-methyl-1H-imidazol-5-yl)methyl)-2,3,4,5-tetrahydro-1H-pyrido[4,3-b]indol-1-one]: the “Fold-change determined at compound concentration 33 μM” value is given as 1.78 and the “Fold-change determined at compound concentration 100 μM” value is reported as 2.308.

As for `Cc1ccc2c(c1)n(Cc1ccc(Cl)cc1)c(=O)c1nc(C(=O)O)nn12` [Entry 213, 5-(4-chlorobenzyl)-7-methyl-4-oxo-4,5-dihydro[1,2,4]triazolo[1,5-a]quinoxaline-2-carboxylic acid], the “Fold-change determined at compound concentration 33 μM” value is reported as 1.199 and the “Fold-change determined at compound concentration 100 μM” value is listed as 1.579.

For `COc1ccc(OC)c2sc(N(CCCN(C)C)C(=O)c3ccco3)nc12` [Entry 207, N-(4,7-dimethoxy-1,3-benzothiazol-2-yl)-N-[3-(dimethylamino)propyl]furan-2-carboxamide], the “Fold-change determined at compound concentration 33 μM” value stood at 1.118 and the “Fold-change determined at compound concentration 100 μM” value is on record as 1.2.

On to `CCOc1ccc2oc(=O)cc(CN3CCN(C(=O)c4ccc(OC)c(OC)c4)CC3)c2c1` [Entry 129, 4-[[4-(3,4-dimethoxybenzoyl)piperazin-1-yl]methyl]-6-ethoxychromen-2-one], for which the “Fold-change determined at compound concentration 33 μM” value was found to be 1.153 and the “Fold-change determined at compound concentration 100 μM” value was found to be 1.395.

On to `COCCNC(=O)Cn1cc2c(n1)-c1c(oc(C(=O)N3CCCC3)c1C)CC2` [Entry 171, N-(2-methoxyethyl)-2-[8-methyl-7-(pyrrolidine-1-carbonyl)-4,5-dihydrofuro[2,3-g]indazol-2-yl]acetamide], for which the “Fold-change determined at compound concentration 33 μM” value is reported as 1.374 and the “Fold-change determined at compound concentration 100 μM” value stood at 1.777.

Take `Cc1cc(Cl)ccc1NS(=O)(=O)c1cc2[nH]c(=O)c(=O)[nH]c2cc1C` [Entry 134, N-(4-chloro-2-methylphenyl)-7-methyl-2,3-dioxo-1,4-dihydroquinoxaline-6-sulfonamide]: the “Fold-change determined at compound concentration 33 μM” value was 1.124 and the “Fold-change determined at compound concentration 100 μM” value was found to be 1.298.
